Laboratory results: ChEMBL document CHEMBL1268819, “Design, synthesis, and biological evaluation of 4-(5-nitrofuran-2-yl)prop-2-en-1-one derivatives as potent antitubercular agents” (Bioorg Med Chem Lett, 2010)
≈ marks a conversion by molar mass, not a printed value.

Tests used:
[1] = system: Mycobacterium tuberculosis; test: Antitubercular activity against Mycobacterium tuberculosis H37Rv by resazurin microtiter assay; type: functional
[2] = Toxicity in African green monkey Vero cells; type: cell-based; settings: chlorocebus sabaeus
[3] = Selectivity index, ratio of CC50 for African green monkey Vero cells to MIC for Mycobacterium tuberculosis H37Rv; type: functional

Row | Structure (SMILES) | MIC [1] [µM] | CC50 [2] [µM] | Selectivity Index [3]
1 | O=C(/C=C/c1ccco1)c1ccc(F)cc1 | > 93.9 | 661 | –
2 | O=C(/C=C/c1ccc([N+](=O)[O-])o1)c1ccc(N2CCOCC2)cc1 | 0.38 (≈ 0.125 µg/mL) | 387 | –
3 | O=C(/C=C/c1ccc([N+](=O)[O-])o1)c1ccc(N2CCN(C/C=C/c3ccccc3)CC2)cc1 | > 32.7 | 343 | –
4 | NNC(=O)c1ccncc1 [ISONIAZID] | 1.8 (≈ 0.247 µg/mL) | > 500 | –
5 | O=C(/C=C/c1ccc([N+](=O)[O-])o1)c1ccc(OCc2ccccc2)cc1 | 3.29 (≈ 1.15 µg/mL) | 515 | –
6 | O=C(/C=C/c1ccc([N+](=O)[O-])o1)c1ccc(Br)cc1 | 3.88 (≈ 1.25 µg/mL) | 354 | –
7 | COc1ccc(C(=O)/C=C/c2ccc([N+](=O)[O-])o2)cc1 | 3.84 (≈ 1.05 µg/mL) | 571 | –
8 | O=C(/C=C/c1ccc([N+](=O)[O-])o1)c1ccc(N2CCCCC2)cc1 | 0.19 (≈ 0.062 µg/mL) | 349 | >1800
9 | O=C(/C=C/c1ccc([N+](=O)[O-])o1)c1ccc(OCc2ccc(Cl)cc2Cl)cc1 | > 46.6 | 340 | –
10 | O=C(/C=C/c1ccc([N+](=O)[O-])o1)c1ccco1 | 8.28 (≈ 1.93 µg/mL) | 776 | –
11 | C=C(C)COc1ccc(C(=O)/C=C/c2ccc([N+](=O)[O-])o2)cc1 | 5.59 (≈ 1.75 µg/mL) | 393 | –
12 | O=C(/C=C/c1ccc([N+](=O)[O-])s1)c1ccc(N2CCCCC2)cc1 | 15.6 (≈ 5.35 µg/mL) | 404 | –
13 | O=C(/C=C/c1ccc([N+](=O)[O-])o1)c1ccc(N2CCN(Cc3ccccc3)CC2)cc1 | > 31.7 | 299 | –
14 | Cc1ccc(C(=O)/C=C/c2ccc([N+](=O)[O-])o2)cc1 | 4.35 (≈ 1.12 µg/mL) | 439 | –
15 | COc1cc(C(=O)/C=C/c2ccc([N+](=O)[O-])o2)cc(OC)c1OC | 6.06 (≈ 2.02 µg/mL) | 384 | –
16 | O=C(/C=C/c1ccc([N+](=O)[O-])o1)c1ccc(Cl)cc1 | 4.5 (≈ 1.25 µg/mL) | 558 | –
17 | O=C(/C=C/c1ccc([N+](=O)[O-])o1)c1ccc(OCc2ccc(F)cc2)cc1 | 19.8 (≈ 7.27 µg/mL) | 430 | –
18 | O=C(/C=C/c1ccc([N+](=O)[O-])o1)c1ccc(F)cc1 | 4.17 (≈ 1.09 µg/mL) | 463 | –
19 | O=C(/C=C/c1ccc([N+](=O)[O-])o1)c1ccc(OCc2cccc(Cl)c2)cc1 | 6.1 (≈ 2.34 µg/mL) | 307 | –
20 | CCN(CC)c1ccc(C(=O)/C=C/c2ccc([N+](=O)[O-])o2)cc1 | 0.48 (≈ 0.151 µg/mL) | 334 | –
21 | O=C(/C=C/c1ccc([N+](=O)[O-])o1)c1ccc(OCc2ccc(OC(F)(F)F)cc2)cc1 | 1.66 (≈ 0.719 µg/mL) | 335 | –
22 | O=C(/C=C/c1ccc([N+](=O)[O-])o1)c1cc2ccccc2oc1=O | 29.9 (≈ 9.32 µg/mL) | 360 | –
23 | COc1ccc(COc2ccc(C(=O)/C=C/c3ccc([N+](=O)[O-])o3)cc2)cc1 | 1.85 (≈ 0.702 µg/mL) | 311 | –
24 | O=C(/C=C/c1ccc([N+](=O)[O-])o1)c1ccccc1 | 5.51 (≈ 1.34 µg/mL) | 444 | –
25 | O=C(/C=C/c1ccc([N+](=O)[O-])o1)c1ccc(Cl)cc1Cl | 14.1 (≈ 4.41 µg/mL) | 417 | –
26 | O=C(/C=C/c1ccc([N+](=O)[O-])o1)c1cccs1 | 5.86 (≈ 1.46 µg/mL) | 742 | –
